Experimental data reported in ChEMBL document CHEMBL1129675, “New directions in antibacterial research” (1996).
Values after ≈ are worked out from the molar mass of the structure shown. Active and inactive are the calls of the source. No cut-off for these calls is given here. Residues, ends and D or L forms follow the SMILES beside them.

Legend:
Enterococcus faecalis = assay: Inhibitory activity against VanA strain of E. faecalis; Range is 0.03-2 ug/mL; assay type: functional
Streptococcus pyogenes = assay: Inhibitory activity against Streptococcus pyogenes; assay type: functional
Enterococcus faecium [1] = assay: Inhibitory activity against VanA strain of E. faecium; Range is 0.03-2 ug/mL; assay type: functional
[2] = Inhibitory activity against VanB enterococci; Range is 0.016-1 ug/mL; assay type: functional
Staphylococcus aureus [3] = assay: Inhibitory activity against MRSA; assay type: functional
Streptococcus pneumoniae = assay: Inhibitory activity against Streptococcus pneumoniae; assay type: functional
Pseudomonas aeruginosa = assay: Antibacterial activity against Pseudomonas aeruginosa was determined; Active; assay type: functional, organism-based
[4] = Antibacterial activity against penicillin resistant pneumococci was determined; Active; assay type: functional
Staphylococcus aureus [5] = assay: Antibacterial activity against MRSA was determined; Active; assay type: functional, organism-based
[6] = Inhibitory activity against many clinical relevent pathogen; Range is 5-50 ug/mL; assay type: functional
Moraxella catarrhalis = assay: Inhibitory activity against Moraxella catarrhalis; assay type: functional
[7] = tested on: Staphylococcus epidermidis; assay: Inhibitory activity against methicillin-sensitive Staphylococcus epidermidis (MSSE); assay type: functional
[8] = tested on: Staphylococcus epidermidis; assay: Inhibitory activity against methicillin-resistant Staphylococcus epidermidis (MRSE); assay type: functional
Bacteria = assay: Inhibitory activity against Corynebacterium; assay type: functional
Bacteroides fragilis = assay: Inhibitory activity against Bacteroides fragilis; assay type: functional
Haemophilus influenzae [9] = assay: Inhibitory activity against Haemophilus influenzae; assay type: functional
Staphylococcus aureus [10] = assay: Inhibitory activity against MSSA; assay type: functional
Enterococcus faecium [11] = assay: Inhibitory activity against Enterococcus faecium; assay type: functional
Haemophilus influenzae [12] = assay: Antibacterial activity against Haemophilus influenzae; Active; assay type: functional, organism-based
Pasteurella multocida = assay: Antibacterial activity against Pasteurella multocida; More active; assay type: functional, organism-based
[13] = Antibacterial activity against Legionella; More active; assay type: functional
Chlamydia = assay: Antibacterial activity against Chlamydia; More active; assay type: functional, organism-based
Streptococcus sp. = assay: Antibacterial activity against Streptococci; Retention of potent activity; assay type: functional, organism-based
[14] = Antibacterial activity against […] species.; More active; assay type: functional
Helicobacter pylori = assay: Antibacterial activity against Helicobacter pylori; Exhibits good activity; assay type: functional, organism-based

## CN[C@H](CC(C)C)C(=O)N[C@H]1C(=O)N[C@@H](CC(N)=O)C(=O)N[C@H]2C(=O)N[C@H]3C(=O)N[C@](C)(C(=O)N[C@H](C(=O)O)c4cc(O)cc(O)c4-c4cc3ccc4O)[C@H](C[C@H]3C[C@](C)(N)[C@@H](O)[C@H](C)O3)c3ccc(c(Cl)c3)Oc3cc2cc(c3O[C@@H]2O[C@H](CO)[C@@H](O)[C@H](O)[C@H]2O[C@@H]2C[C@](C)(NCc3ccc(Oc4ccccc4)cc3)[C@@H](O)[C@H](C)O2)Oc2ccc(cc2Cl)[C@H]1O
Enterococcus faecalis
  MIC: 0.03 µg/mL (≈ 0.0168 µM)
Streptococcus pyogenes
  MIC: < 0.06 µg/mL
Enterococcus faecium [1]
  MIC: 0.03 µg/mL (≈ 0.0168 µM)
[2]
  MIC: 0.016 µg/mL (≈ 0.00895 µM)
Staphylococcus aureus [3]
  MIC: ≤ 0.5 µg/mL
Streptococcus pneumoniae
  MIC: < 0.008 µg/mL

## Cc1nc(SCC2=C(C(=O)O)N3C(=O)[C@@H](NC(=O)/C(=N\OCc4cc(=O)c(O)cn4O)c4csc(N)n4)[C@H]3CS2)sc1C(=O)O
Pseudomonas aeruginosa
  Activity: Active

## C[C@@H](O)[C@H]1C(=O)N2C(C(=O)[O-])=C(c3ccc4c(c3)-c3ccc(C[n+]5ccn(C)c5)cc3C4=O)C[C@H]12
[4]
  Activity: Active
Staphylococcus aureus [5]
  Activity: Active

## C[C@H](O)[C@H]1C(=O)N2C(C(=O)[O-])=C(Sc3nc(-c4cc[n+](CC(N)=O)cc4)cs3)[C@H](C)[C@H]12
Staphylococcus aureus [5]
  Activity: Active

## CC[C@H](C)[C@H](NC(=O)CN)C(=O)NCC(=O)N[C@@H](CCCCN)C(=O)N[C@@H](Cc1ccccc1)C(=O)N[C@@H](CC(C)C)C(=O)N[C@@H](Cc1cnc[nH]1)C(=O)N[C@@H](CO)C(=O)N[C@@H](C)C(=O)NCC(=O)N[C@@H](CCCCN)C(=O)N[C@@H](Cc1ccccc1)C(=O)NCC(=O)N[C@@H](CCCCN)C(=O)N[C@@H](C)C(=O)N[C@@H](Cc1ccccc1)C(=O)N[C@H](C(=O)NCC(=O)N[C@@H](CCC(=O)O)C(=O)N[C@H](C(=O)N[C@@H](CCSC)C(=O)N[C@@H](CCCCN)C(=O)N[C@@H](CO)C(=O)O)[C@@H](C)CC)C(C)C [MAGAININ I] (H-GIGKFLHSAGKFGKAFVGEIMKS-OH)
[6]
  MIC: 5 µg/mL (≈ 2.07 µM)

## CCCCC1CCC(CN[C@@]2(C)C[C@@H](O[C@H]3[C@H](Oc4c5cc6cc4Oc4ccc(cc4Cl)[C@@H](C[C@H]4C[C@](C)(N)[C@@H](O)[C@H](C)O4)[C@]4(C)NC(=O)[C@H](NC(=O)[C@@H]6NC(=O)[C@H](CC(N)=O)NC(=O)[C@H](NC(=O)[C@@H](CC(C)C)NC)[C@H](O)c6ccc(c(Cl)c6)O5)c5ccc(O)c(c5)-c5c(O)cc(O)cc5[C@@H](C(=O)O)NC4=O)O[C@H](CO)[C@@H](O)[C@@H]3O)O[C@@H](C)[C@@H]2O)CC1 (some centres not stated)
Enterococcus faecalis
  MIC: 0.03 µg/mL (≈ 0.0171 µM)
Streptococcus pyogenes
  MIC: < 0.06 µg/mL
Enterococcus faecium [1]
  MIC: 0.03 µg/mL (≈ 0.0171 µM)
[2]
  MIC: 0.016 µg/mL (≈ 0.00911 µM)
Staphylococcus aureus [3]
  MIC: ≤ 0.5 µg/mL
Streptococcus pneumoniae
  MIC: < 0.008 µg/mL

## C[C@@H](O)[C@H]1C(=O)N2C(C(=O)O)=C(SCCNC=N)C[C@H]12
Pseudomonas aeruginosa
  Activity: Active

## CC(=O)NC[C@H]1CN(c2ccc(N3CCOCC3)c(F)c2)C(=O)O1 [LINEZOLID]
Moraxella catarrhalis
  MIC90: 4 µg/mL (≈ 11.9 µM)
Streptococcus pyogenes
  MIC90: 2 µg/mL (≈ 5.93 µM)
[7]
  MIC90: 2 µg/mL (≈ 5.93 µM)
[8]
  MIC90: 2 µg/mL (≈ 5.93 µM)
Bacteria
  MIC90: 0.5 µg/mL (≈ 1.48 µM)
Bacteroides fragilis
  MIC90: 4 µg/mL (≈ 11.9 µM)
Haemophilus influenzae [9]
  MIC90: 16 µg/mL (≈ 47.4 µM)
Staphylococcus aureus [10]
  MIC90: 4 µg/mL (≈ 11.9 µM)
Enterococcus faecium [11]
  MIC90: 4 µg/mL (≈ 11.9 µM)
Staphylococcus aureus [3]
  MIC90: 4 µg/mL (≈ 11.9 µM)
Streptococcus pneumoniae
  MIC90: 1 µg/mL (≈ 2.96 µM)

## CC(=O)NC[C@H]1CN(c2ccc(N3CCN(C(=O)CO)CC3)c(F)c2)C(=O)O1 [EPEREZOLID]
Moraxella catarrhalis
  MIC90: 4 µg/mL (≈ 10.1 µM)
Streptococcus pyogenes
  MIC90: 1 µg/mL (≈ 2.54 µM)
[7]
  MIC90: 1 µg/mL (≈ 2.54 µM)
[8]
  MIC90: 1 µg/mL (≈ 2.54 µM)
Bacteria
  MIC90: 0.5 µg/mL (≈ 1.27 µM)
Bacteroides fragilis
  MIC90: 16 µg/mL (≈ 40.6 µM)
Haemophilus influenzae [9]
  MIC90: 16 µg/mL (≈ 40.6 µM)
Staphylococcus aureus [10]
  MIC90: 4 µg/mL (≈ 10.1 µM)
Enterococcus faecium [11]
  MIC90: 2 µg/mL (≈ 5.07 µM)
Staphylococcus aureus [3]
  MIC90: 4 µg/mL (≈ 10.1 µM)
Streptococcus pneumoniae
  MIC90: 0.5 µg/mL (≈ 1.27 µM)

## CC[C@H]1OC(=O)[C@H](C)[C@@H](OC2CC(C)(O)C(O)C(C)O2)[C@H](C)[C@@H](OC2OC(C)CC(N(C)C)C2O)[C@](C)(OC)C[C@@H](C)C(=O)[C@H](C)[C@@H](O)[C@]1(C)O (some centres not stated)
Haemophilus influenzae [12]
  Activity: Active
Pasteurella multocida
  Activity: Active
[13]
  Activity: Active
Chlamydia
  Activity: Active
Streptococcus sp.
  Activity: Exihibits good activity
[14]
  Activity: Active
Helicobacter pylori
  Activity: Exihibits good activity
